Measured values taken from patent US20130039998A1, “COMPOSITIONS OF MODULATORS OF THE WNT/BETA-CATENIN PATHWAY AND BENZAMIDE AND/OR HYDROXAMIC ACID DERIVATIVES TO TREAT BIPOLAR DISORDER” (UNIVERSITY OF WASHINGTON, priority 2008, published 2013).
“Also recorded” adds a separate entry of the source.

What was measured:
GSK-3 = conditions: from Ring et al. 2003 / Cline et al. 2002, cited from earlier work; for EC50: read-out: half-maximal effective concentration [EC50]
[1] = system: T1, class I and class II HDACs; experiment: In vitro class I and class II HDAC inhibition; assay type: biochemical, human; conditions: compared with valproate
T1 construct: other: HDAC1/2/3 together; other: compared with valproate
Text: (§1) To measure the effects of compounds on HDAC activity, a homogenous, fluorimetric deacetylase assay miniaturized to 384-well plate format was used. To perform this assay, a buffered solution containing a recombinant human deacetylase was transferred to a microtiter plate using a robotic plate-filler.
(§2) Following compound transfer, a second buffered solution was transferred containing trypsin and a class-specific, tripeptide substrate (AcK-AMC) terminating in an acetyl-lysine, which is amide-coupled to 7-amino-4-methylcoumarin (AMC). Following substrate hydrolysis by the deacetylase, trypsin cleaves the terminal amide bond releasing AMC. With an excitation/emission maximum of 350-380/440-460 nm, AMC fluorescence is captured by a multilabel plate reader. For a kinetic version of the assay, fluorescence measurements was recorded every 0.5-5 minutes over 60 minutes. Data were plotted on a well-by-well basis to measure the slope of increasing fluorescence over time, corresponding to enzymatic activity. HDAC enzymes used were commercially-available (BPS Biosciences San Diego, Calif.).

[2] = system: pfuBARS control reporter (non-functional TCF elements), HEK-293T cells
Text: (§3) To monitor Wnt/β-catenin signalling the beta-catenin activated reporter (BAR) system developed at the laboratory of Randall Moon, University of Washington, Seattle, Wash., was used. The BAR system contains a concatemer of twelve TCF (T-cell factor) response elements separated by unique five nucleotide linkers specifically designed to minimize recombination that can lead to loss of TCF binding sites. This series of TCF response elements is inserted upstream of Promega's minP minimal promoter completing a functional promoter that drives the transcription of firefly luciferase (pBARLS) along with a PGK promoter driving a puromycin selectable maker. These reporters were inserted between the LTRs (long terminal repeats) of a lentiviral transducing plasmid. […] The pfuBARS reporter is identical to their respective parent reporter with the exception that each TCF DNA binding element contains a two-base substitution conferring a non-functional element. The essentially identical nature of the control reporters provides the most optimal experimental control, as well as allowing for identical lentiviral titer production when generated side by side with the responsive reporter.
(§4) Cells were plated, treated, and the luciferase activity measured in a 384-well plate. The volume of culture media in each well prior to measuring luciferase activity was 40 μL. After incubation with compounds, 10 μL of Promega Firefly luciferase reagent was added using a liquid dispenser and incubated for 10 minutes at room temperature. Total luminescence was read on an Envision (Perkin Elmer) plate reader. Data was expressed relative to baseline of adding DMSO alone.

[3] = system: Wnt/β-catenin signalling (TCF/LEF transcription), HEK-293T cells; experiment: pBARLS beta-catenin activated reporter (TCF/LEF transcription) in HEK-293T cells; assay type: cell-based, human; conditions: for activation of pBARLS reporter, compound alone (FIG. 3B) / activation of pBARLS reporter in the presence of lithium (FIG. 3B): HEK293T, dose response; for activation of pBARLS reporter in the presence of lithium: 25 μM compound plus lithium 10 mM; for activation of pBAR reporter (FIG. 1B): HEK-293T cells (human)
Text: as §3, §4

[4] = system: Wnt/β-catenin signalling (TCF/LEF transcription), HT22 cells; experiment: pBARLS beta-catenin activated reporter (TCF/LEF transcription) in HT22 cells; assay type: cell-based, mouse; conditions: for activation of pBARLS reporter in the presence of lithium / activation of transcription of pBARLS reporter, compound alone: HT22, 24 hr; for activation of pBARLS reporter in the presence of lithium: 25 μM compound plus lithium 10 mM; for activation of transcription of pBARLS reporter, compound alone: lithium 10 mM, MS-275, CI-994, SAHA 25 μM; for activation of pBAR reporter (FIG. 1B): HT22 cells (mouse)
Text: as §3, §4

HDAC1 = molecular target: T2, HDAC1 (Homo sapiens, UniProt Q13547); experiment: Fluorimetric deacetylase assay, HDAC1; assay type: biochemical; conditions: Class I; avg n = 2 with class-specific substrates
T2 construct: purchased BPS Biosciences
T2 sequence (Q13547 whole entry): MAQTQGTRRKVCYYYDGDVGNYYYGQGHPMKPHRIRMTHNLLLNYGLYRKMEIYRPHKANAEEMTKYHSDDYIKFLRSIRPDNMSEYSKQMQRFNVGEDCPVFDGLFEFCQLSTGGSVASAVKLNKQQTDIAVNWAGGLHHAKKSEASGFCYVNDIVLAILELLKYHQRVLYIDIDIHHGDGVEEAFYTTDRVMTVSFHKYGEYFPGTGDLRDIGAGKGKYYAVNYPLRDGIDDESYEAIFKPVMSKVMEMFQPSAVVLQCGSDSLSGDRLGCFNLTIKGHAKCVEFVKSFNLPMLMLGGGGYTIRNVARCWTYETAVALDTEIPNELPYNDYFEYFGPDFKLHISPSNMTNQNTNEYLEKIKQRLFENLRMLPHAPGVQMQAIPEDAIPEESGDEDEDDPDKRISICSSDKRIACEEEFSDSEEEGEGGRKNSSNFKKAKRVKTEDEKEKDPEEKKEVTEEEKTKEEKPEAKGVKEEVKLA

HDAC6 = HDAC6 (Homo sapiens, UniProt Q9UBN7); experiment: Fluorimetric deacetylase assay, HDAC6; assay type: biochemical
HDAC6, sequence (Q9UBN7 whole entry): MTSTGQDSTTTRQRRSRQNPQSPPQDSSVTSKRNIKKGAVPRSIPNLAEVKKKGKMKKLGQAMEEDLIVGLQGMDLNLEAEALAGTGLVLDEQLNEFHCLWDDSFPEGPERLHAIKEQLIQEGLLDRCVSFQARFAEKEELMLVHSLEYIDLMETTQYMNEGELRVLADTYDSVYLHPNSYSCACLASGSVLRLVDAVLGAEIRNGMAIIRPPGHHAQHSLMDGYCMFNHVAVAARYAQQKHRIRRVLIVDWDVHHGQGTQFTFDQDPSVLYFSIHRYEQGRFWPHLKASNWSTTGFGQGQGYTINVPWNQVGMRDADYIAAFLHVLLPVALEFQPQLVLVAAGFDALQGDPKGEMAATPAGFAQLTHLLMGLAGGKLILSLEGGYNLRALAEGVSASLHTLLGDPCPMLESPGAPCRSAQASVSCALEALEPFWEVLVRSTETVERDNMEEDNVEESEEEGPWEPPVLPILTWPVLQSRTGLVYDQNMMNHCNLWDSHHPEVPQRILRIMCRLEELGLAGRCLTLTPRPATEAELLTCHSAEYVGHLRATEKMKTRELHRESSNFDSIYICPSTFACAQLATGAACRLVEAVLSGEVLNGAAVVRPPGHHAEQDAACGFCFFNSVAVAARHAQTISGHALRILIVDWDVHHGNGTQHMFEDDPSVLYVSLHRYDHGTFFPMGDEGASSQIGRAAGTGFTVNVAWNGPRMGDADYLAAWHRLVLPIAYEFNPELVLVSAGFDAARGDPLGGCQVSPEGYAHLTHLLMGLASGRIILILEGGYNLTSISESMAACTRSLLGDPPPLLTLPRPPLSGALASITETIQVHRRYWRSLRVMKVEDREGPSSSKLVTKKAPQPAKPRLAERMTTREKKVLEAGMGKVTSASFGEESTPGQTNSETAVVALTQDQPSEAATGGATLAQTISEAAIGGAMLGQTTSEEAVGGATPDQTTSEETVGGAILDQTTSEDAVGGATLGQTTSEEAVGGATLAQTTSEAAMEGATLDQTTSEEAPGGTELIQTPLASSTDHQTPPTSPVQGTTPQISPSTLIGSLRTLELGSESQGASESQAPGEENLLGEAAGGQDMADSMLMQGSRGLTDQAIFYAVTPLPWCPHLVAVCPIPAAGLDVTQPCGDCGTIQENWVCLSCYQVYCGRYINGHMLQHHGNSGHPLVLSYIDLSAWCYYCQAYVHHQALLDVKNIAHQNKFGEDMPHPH
Text: as §1, §2

HDAC5 = molecular target: T3, HDAC5 (Homo sapiens, UniProt Q9UQL6); experiment: Fluorimetric deacetylase assay, HDAC5; assay type: biochemical; conditions: Class IIa
T3 construct: purchased BPS Biosciences
T3 sequence (Q9UQL6 whole entry): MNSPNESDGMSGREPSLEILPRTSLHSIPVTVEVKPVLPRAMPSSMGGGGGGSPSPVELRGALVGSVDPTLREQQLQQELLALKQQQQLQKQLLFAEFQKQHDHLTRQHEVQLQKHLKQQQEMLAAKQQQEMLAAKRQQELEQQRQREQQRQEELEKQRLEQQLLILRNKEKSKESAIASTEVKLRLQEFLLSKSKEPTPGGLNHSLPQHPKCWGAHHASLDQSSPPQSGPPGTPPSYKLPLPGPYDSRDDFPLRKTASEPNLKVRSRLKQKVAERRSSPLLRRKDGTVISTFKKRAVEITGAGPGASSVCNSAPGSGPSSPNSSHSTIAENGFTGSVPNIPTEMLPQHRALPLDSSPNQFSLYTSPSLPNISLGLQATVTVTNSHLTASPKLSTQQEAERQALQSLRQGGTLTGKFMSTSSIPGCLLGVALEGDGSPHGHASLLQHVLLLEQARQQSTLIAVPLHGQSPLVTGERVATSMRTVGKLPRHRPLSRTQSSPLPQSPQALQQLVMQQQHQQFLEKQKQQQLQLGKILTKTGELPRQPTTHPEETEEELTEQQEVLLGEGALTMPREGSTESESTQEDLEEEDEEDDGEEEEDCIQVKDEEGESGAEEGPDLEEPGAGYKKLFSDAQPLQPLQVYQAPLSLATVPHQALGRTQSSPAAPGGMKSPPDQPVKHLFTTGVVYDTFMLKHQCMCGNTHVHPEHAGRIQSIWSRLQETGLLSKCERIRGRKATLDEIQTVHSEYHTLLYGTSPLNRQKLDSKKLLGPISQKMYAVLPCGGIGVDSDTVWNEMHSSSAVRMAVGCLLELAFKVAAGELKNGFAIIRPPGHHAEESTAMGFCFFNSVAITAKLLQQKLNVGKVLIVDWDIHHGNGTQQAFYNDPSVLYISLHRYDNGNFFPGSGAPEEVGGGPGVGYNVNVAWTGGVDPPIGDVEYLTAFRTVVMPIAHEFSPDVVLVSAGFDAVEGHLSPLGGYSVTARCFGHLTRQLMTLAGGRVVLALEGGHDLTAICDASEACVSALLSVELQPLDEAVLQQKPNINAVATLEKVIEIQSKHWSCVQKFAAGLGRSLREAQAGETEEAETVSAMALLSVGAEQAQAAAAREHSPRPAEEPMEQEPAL

[5] = listed as Wnt3a conditioned media

O=[N+]([O-])c1ccc(NCCNc2ncc(-c3ncc[nH]3)c(-c3ccc(Cl)cc3Cl)n2)nc1 [CHIR-837]
selectivity for GSK-3 (GSK-3): > 5,000 fold
EC50 (GSK-3): 375 nM

CC(=O)Nc1ccc(C(=O)Nc2ccccc2N)cc1 [CI-994]
potency on class I HDACs in comparison to valproate [1]: much more potent
activity in pfuBARS control reporter, compound alone [2]: no activity
activity in pfuBARS control reporter in the presence of lithium [2]: no activity

Nc1ccccc1NC(=O)c1ccc(CNC(=O)OCc2cccnc2)cc1 [MS-275]
activation of pBARLS reporter, compound alone (FIG. 3B) ([3]; 24 hr, alone): activation on their own
activation of pBARLS reporter in the presence of lithium (FIG. 3B) ([3]; 24 hr, lithium 10 mM): synergistic activation
activation of pBARLS reporter in the presence of lithium ([3]; HEK-293T, 24 hr): strong synergistic activation of transcription; also recorded: strong synergy
activation of transcription of pBARLS reporter, compound alone ([3]; HEK-293T, 24 hr, lithium 10 mM, MS-275, CI-994, SAHA 25 μM, alone): activated transcription of the reporter; also recorded: activate transcription on their own
activity in pfuBARS control reporter, compound alone [2]: no activity
activity in pfuBARS control reporter in the presence of lithium [2]: no activity
activation of pBARLS reporter in the presence of lithium [4]: strong synergistic activation of transcription
activation of transcription of pBARLS reporter, compound alone [4]: partially capable of activating transcription; also recorded: capable of activating transcription on its own

O=C(CCCCCCC(=O)Nc1ccccc1)NO [SAHA]
activation of pBARLS reporter in the presence of lithium ([3]; HEK-293T, 24 hr): strong synergistic activation of transcription; also recorded: strong synergy
activation of pBARLS reporter in the presence of lithium [4]: strong synergistic activation of transcription
activation of transcription of pBARLS reporter, compound alone [4]: unable to activate transcription

Cc1[nH]c2ccccc2c1CCNCc1ccc(/C=C/C(=O)NO)cc1 [panobinostat]
activation of pBARLS reporter, compound alone (FIG. 3B) ([3]; 24 hr, alone): activation on their own
activation of pBARLS reporter in the presence of lithium (FIG. 3B) ([3]; 24 hr, lithium 10 mM): synergistic activation
potency relative to SAHA (dose responses, FIG. 3) ([3]; pBARLS reporter dose response): more potent than SAHA

CCCC(CCC)C(=O)O [valproate]
IC50 (HDAC1): 27 µM
IC50 (HDAC6): > 10 mM
IC50 (HDAC5): > 10 mM

Wnt3a
activation of pBAR reporter (FIG. 1B) [3]: activation
activation of pBAR reporter (FIG. 1B) [3, 5]: capable of responding
activation of pBAR reporter (FIG. 1B) [4]: activation
activation of pBAR reporter (FIG. 1B) [4, 5]: capable of responding
